Values joined by “and” are separate entries in the source; they are usually repeats but may differ in a detail not shown here. Identical values can stand only once.
Key:
[1] = tested on: PBMCs from asymptomatic HLA-A*02:01 Chagas disease patients; experiment: HLA-A*02:01 restriction assay: peptide-pulsed K562-A2 cells as APC, IFN-γ secretion by patient PBMC; assay type: cell-based, human; details: K562-A2 cells pulsed with 1 mM peptide 1 h, co-cultured 30 h with PBMC of asymptomatic (IND) patients; positive = IFN-γ at least two folds un-stimulated cells
[2] = tested on: PBMC from HLA-A*02:01 Chagas disease patients and healthy donors; experiment: Granzyme B ELISPOT in PBMC; assay type: cell-based, human; details: 30 h, non-peptide control spots subtracted
Protocol: For the screening of the recognition of TcCA-2 epitopes by Chagas disease patients, 10 HLA-A*02:01 adult patients in the asymptomatic phase of the disease (IND) were enrolled. For cytotoxicity, functional activity determinations and phenotypic characterization another group of 19 HLA-A*02:01 adults Chagas disease patients and 9 healthy donors were analyzed. These patients were at the chronic stage of the disease and were considered to be at the asymptomatic phase (IND, n = 8) if there was no evidence of having cardiac or gastrointestinal disorders. Chronic Chagas cardiomyopathy patients (CCC, n = 11) were stratified into G1 to G3 stages following Kuschnir classification according to clinical criteria and radiological, electrocardiographic and echocardiography analyses. The number of patients was the one recommended by the Hospital Ethical Committee. […] The patients were enrolled in both studies (functional and phenotypic characterization, IND n = 6 and CCC n = 7) when the available number of purified PBMC (limited by the cellular number isolated from each subject) was enough for both analyses. Another four CCC patients had to be enrolled to perform the phenotypic analysis in order to reach statistical significance.
The frequency of Granzyme B (GzB) producing cells was evaluated by ELISPOT assays using cryopreserved PBMC from Chagas disease patients and healthy donors as control. This protocol was carried out as described in [20]. Briefly, 96-well PVDF membrane-bottom plates (Millipore) were pre-wetted with 35% ethanol and washed five times with PBS. Subsequently, plates were coated with 100 μL of anti-GzB (5 μg/mL) monoclonal antibody (Mabtech) and incubated overnight at 4°C. Plates were washed with PBS and incubated with 200 μL/well of blocking solution (RPMI-1640-10% FCS) at room temperature for 30 minutes. Afterwards, 5 × 10^4 PBMC/well were added and incubated with 1 μM of each peptide for 30 h at 37°C with 5% CO2, in triplicates. As a positive control, the PBMC were stimulated with 50 ng/ml phorbol 12-myristate 13-acetate (PMA, Sigma) and 500 ng/ml ionomycin (Sigma), or 10 μg/mL of phytohaemaglutinin (PHA, Sigma). Supernatants were harvested and aliquoted at -80°C for subsequent cytokine secretion profile determination. After five washes, 100 μL/well of a 1 μg/mL solution of biotinylated GzB-specific antibody (Mabtech) was added in 0.5% iFCS in PBS, and the plates were incubated for 2 h at room temperature. Wells were extensively washed with PBS and incubated with 100 μL/well streptavidin-alkaline phosphatase (Sigma) at dilution of 1:6000 for 1 h at room temperature. After washing (5x) with PBS, 50 μL/well of substrate solution (NBT-BCIP substrate, Sigma) were added. The wells were incubated for 20–30 min at room temperature in the dark. The reaction was stopped by rinsing the plates with cold tap water. The spots were visualized in an AXIO PLAN 2 Imagine microscope and quantified using KS ELISPOT software. The results are expressed as the number of peptide-induced spots forming cell (SFC) x10^6 PBMC after subtracting the spot number of peptide un-stimulated PBMCs (basal response). The results were considered positive when a minimum of 20 SFCx10^6 PBMCs and of at least over twofold basal spot numbers were detected.
The cytotoxic activity of the CD8^+ T cells specific for these four TcCA-2-derived epitopes was evaluated by secretion of GzB through ELISPOT assays. Thus, PBMC from 15 HLA-A*02:01 chagasic patients (8 IND and 7 CCC) and 9 healthy donors were incubated with the peptides under study. A positive GzB response was detected in 3 patients (2 IND and 1 CCC) out of 10 in response to incubation with the TcCA-2_657-666 peptide, 5 patients (3 IND and 2 CCC) out of 14 in response to the TcCA-2_442-451 peptide, 3 patients (3 CCC) out of 14 in response to the TcCA-2_607-615 peptide and 2 patients (2 IND) out of 11 in response to the TcCA-2_273-281 peptide (Table 3). Cytotoxic activities were not detected in any healthy donor. […]

[3] = PBMC of patient CCC I 456, 1 μM peptide
[4] = PBMC of patient CCC I 770, 1 μM peptide
[5] = PBMC of patient CCC I 861, 1 μM peptide
[6] = PBMC of patient CCC I 884, 1 μM peptide
[7] = PBMC of patient CCC II 142, 1 μM peptide
[8] = PBMC of patient CCC III 509, 1 μM peptide
[9] = PBMC of patient CCC III 797, 1 μM peptide
[10] = PBMC of patient IND 265, 1 μM peptide
[11] = PBMC of patient IND 283, 1 μM peptide
[12] = PBMC of patient IND 365, 1 μM peptide
[13] = PBMC of patient IND 388, 1 μM peptide
[14] = PBMC of patient IND 510, 1 μM peptide
[15] = PBMC of patient IND 535, 1 μM peptide
[16] = PBMC of patient IND 917, 1 μM peptide
[17] = PBMC of subject HD 001, 1 μM peptide
[18] = PBMC of subject HD 004, 1 μM peptide
[19] = PBMC of subject HD 005, 1 μM peptide
[20] = PBMC of subject HD 006, 1 μM peptide
[21] = PBMC of subject HD 008, 1 μM peptide
[22] = PBMC of subject HD 011, 1 μM peptide
[23] = PBMC of subject HD 340, 1 μM peptide
[24] = PBMC of subject HD 664, 1 μM peptide
[25] = PBMC of patient IND 571, 1 μM peptide

| Sequence | Chagas disease patient: patients with positive response in relation with the total number of patients per assay [1] | GzB [2, 3] [SFC/10^6] | GzB [2, 4] [SFC/10^6] | GzB [2, 5] [SFC/10^6] | GzB [2, 6] [SFC/10^6] | GzB [2, 7] [SFC/10^6] | GzB [2, 8] [SFC/10^6] | GzB [2, 12] [SFC/10^6] | GzB [2, 13] [SFC/10^6] | GzB [2, 14] [SFC/10^6] | GzB [2, 15] [SFC/10^6] | GzB [2, 16] [SFC/10^6] | GzB [2, 17] [SFC/10^6] | GzB [2, 18] [SFC/10^6] | GzB [2, 19] [SFC/10^6] | GzB [2, 20] [SFC/10^6] | GzB [2, 21] [SFC/10^6] | GzB [2, 22] [SFC/10^6] | GzB [2, 23] [SFC/10^6] | GzB [2, 24] [SFC/10^6] | also measured |
| --- | --- | --- | --- | --- | --- | --- | --- | --- | --- | --- | --- | --- | --- | --- | --- | --- | --- | --- | --- | --- | --- |
| ALRNLRVFL [TcCA-2_607-615] | 3 out of 9 and 3/9 | 13 | 0 | -8 | 0 | 53 | 25 | 7 | 13 | 13 | -7 | -20 | 0 | -7 | -47 | 7 | -70 | -7 | 0 | 0 | GzB [2, 9]: 27 SFC/10^6; GzB [2, 10]: -100 SFC/10^6; GzB [2, 11]: -20 SFC/10^6 |
| TVFDASRSTV [TcCA-2_442-451] | 2 out of 10 and 2/10 | -7 | 13 | 0 | 7 | 80 | 50 | 27 | 0 | 0 | -13 | 40 | 0 | 0 | -40 | -7 | -73 | -20 | 1 | 1 | GzB [2, 9]: 7 SFC/10^6; GzB [2, 10]: -13 SFC/10^6; GzB [2, 11]: 47 SFC/10^6 |
| AAAGDKLSL [TcCA-2_273-281] | 1 out of 10 and 1/10 | 13 | -7 | 8 | 7 | – | 0 | 7 | 33 | -20 | -27 | 13 | 1 | 0 | -47 | -7 | -47 | -20 | 0 | 0 | GzB [2, 25]: 67 SFC/10^6 |
| ALQVTNHRYL [TcCA-2_657-666] | Two out of 9 and 2/9 | – | -7 | 50 | 0 | – | 0 | 0 | 7 | -7 | 67 | -10 | 0 | -7 | -40 | 0 | -47 | -7 | 1 | 0 | GzB [2, 25]: 83 SFC/10^6; GzB ([2]; PBMC of subject HD 017, 1 μM peptide): 0 SFC/10^6 |
